Results on eight compounds are retold here after patent publication US12528786B2, “Plasma kallikrein inhibitors” (Merck Sharp & Dohme LLC, priority 2020, dated 2026).

pIC50: −log10 of the molar value.

The assay deals with T1, Human plasma kallikrein (Homo sapiens, UniProt P03952).
T1 construct: yields a heavy chain (371 amino acids) and a light chain (248 amino acids); purchased Enzyme Research Laboratories
T1 sequence (P03952 391-638 limits assumed): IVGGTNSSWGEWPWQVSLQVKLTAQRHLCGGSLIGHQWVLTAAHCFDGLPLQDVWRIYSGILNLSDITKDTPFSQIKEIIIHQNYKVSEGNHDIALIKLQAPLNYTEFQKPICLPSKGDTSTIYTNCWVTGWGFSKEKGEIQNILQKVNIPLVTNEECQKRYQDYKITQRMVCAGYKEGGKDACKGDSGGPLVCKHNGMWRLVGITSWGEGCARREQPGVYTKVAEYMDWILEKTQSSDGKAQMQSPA
T1 sequence (P03952 20-390 partner limits assumed): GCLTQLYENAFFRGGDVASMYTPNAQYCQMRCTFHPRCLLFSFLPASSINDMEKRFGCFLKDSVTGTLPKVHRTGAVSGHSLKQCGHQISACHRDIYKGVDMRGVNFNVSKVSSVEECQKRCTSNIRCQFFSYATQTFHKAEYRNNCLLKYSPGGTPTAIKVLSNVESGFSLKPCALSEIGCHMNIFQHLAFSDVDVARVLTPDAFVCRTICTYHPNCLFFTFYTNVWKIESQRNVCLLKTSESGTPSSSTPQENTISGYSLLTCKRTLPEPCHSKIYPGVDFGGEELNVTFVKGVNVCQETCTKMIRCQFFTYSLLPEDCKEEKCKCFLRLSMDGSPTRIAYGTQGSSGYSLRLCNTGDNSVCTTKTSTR
Put plainly: Kallikrein Assay (fluorogenic substrate hydrolysis, AFC release). In kind it is biochemical. The settings on record: purified Human plasma kallikrein 0.5 nM; substrate Acetyl-K—P—R-AFC 100 mM; 50 mM HEPES pH 7.4. The method in brief:
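Enzyme–inhibitor equilibrated before substrate dilution to ≤0.2 Km; human plasma kallikrein at 0.5 nM final, Acetyl-K-P-R-AFC substrate, HEPES pH 7.4 buffer with NaCl, CaCl2, PEG 8000, at room temperature or 37° C. Linear-phase fluorescence rate gives percent inhibition, four-parameter logistic IC50, then Cheng-Prusoff Ki.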
What is called pIC50 is −log10 of the IC50, conventionally taken in molar units. Lower therefore signals a high IC50. As for `Cc1ccc(C#N)c([C@H]2C[C@@H](NC(=O)c3cn(C(C)c4nnc(N5C[C@H]6C[C@H]6C5=O)c(C)c4C)nn3)C2)n1` (single isomer, unassigned) [Example 128, N-((cis)-3-(3-cyano-6-methylpyridin-2-yl)cyclobutyl)-1-((S or R)-1-(4,5-dimethyl-6-((1R,5S)-2-oxo-3-azabicyclo[3.1.0]hexan-3-yl)pyridazin-3-yl)ethyl)-1H-1,2,3-triazole-4-carboxamide], the pIC50 is 8.64.
In the case of `Cc1ccc(C#N)c([C@H]2C[C@@H](NC(=O)c3cnn(C(C)c4cnc(N5C[C@H]6C[C@H]6C5=O)c(C)n4)c3)C2)n1` (single isomer, unassigned) [Example 52, N-((cis)-3-(3-cyano-6-methylpyridin-2-yl)cyclobutyl)-1-((S or R)-1-(6-methyl-5-((1R,5S)-2-oxo-3-azabicyclo[3.1.0]hexan-3-yl)pyrazin-2-yl)ethyl)-1H-pyrazole-4-carboxamide], the pIC50 was 8.00.
Compound `Cc1cc(C(C)n2cc(C(=O)N[C@H]3C[C@@H](c4cc(Cl)ccc4C#N)C3)cn2)nnc1N1C[C@H]2C[C@H]2C1=O` (single isomer, unassigned) [Example 31, N-((cis)-3-(5-chloro-2-cyanophenyl)cyclobutyl)-1-((S or R)-1-(5-methyl-6-((1R,5S)-2-oxo-3-azabicyclo[3.1.0]hexan-3-yl)pyridazin-3-yl)ethyl)-1H-pyrazole-4-carboxamide] gave a negative logarithm of the IC50 (pIC50) of 8.14.
As for `COc1c(N2C[C@H]3C[C@H]3C2=O)ncc(C(C)n2cc(C(=O)N[C@H]3C[C@@H](c4cc(Cl)ccc4C#N)C3)nn2)c1C` (single isomer, unassigned) [Example 112, N-((cis)-3-(5-chloro-2-cyanophenyl)cyclobutyl)-1-((S or R)-1-(5-methoxy-4-methyl-6-((1R,5S)-2-oxo-3-azabicyclo[3.1.0]hexan-3-yl)pyridin-3-yl)ethyl)-1H-1,2,3-triazole-4-carboxamide], the figure is 8.17; as for `Cc1ccnc([C@H]2C[C@@H](NC(=O)c3cnn(C(C)c4cnc(N5C[C@H]6C[C@H]6C5=O)cc4C)c3)C2)c1` (single isomer, unassigned) [Example 32, 1-((R or S)-1-(4-methyl-6-((1R,5S)-2-oxo-3-azabicyclo[3.1.0]hexan-3-yl)pyridin-3-yl)ethyl)-N-((cis)-3-(4-methylpyridin-2-yl)cyclobutyl)-1H-pyrazole-4-carboxamide], 7.95; as for `COc1cc(C(C)n2cc(C(=O)N[C@H]3C[C@@H](c4cc(Cl)ccc4C#N)C3)nn2)cnc1N1C[C@H]2C[C@H]2C1=O` (single isomer, unassigned) [Example 102, N-((cis)-3-(5-chloro-2-cyanophenyl)cyclobutyl)-1-((S or R)-1-(5-methoxy-6-((1R,5S)-2-oxo-3-azabicyclo[3.1.0]hexan-3-yl)pyridin-3-yl)ethyl)-1H-1,2,3-triazole-4-carboxamide], 8.49.
As for `Cc1ccc(C#N)c([C@H]2C[C@@H](NC(=O)c3cn(C(C)c4cnc(N5C[C@H]6C[C@H]6C5=O)c(F)c4C)nn3)C2)n1` (single isomer, unassigned) [Example 135, N-((cis)-3-(3-cyano-6-methylpyridin-2-yl)cyclobutyl)-1-((R or S)-1-(5-fluoro-4-methyl-6-((1R,5S)-2-oxo-3-azabicyclo[3.1.0]hexan-3-yl)pyridin-3-yl)ethyl)-1H-1,2,3-triazole-4-carboxamide], the figure is 7.10; as for `Cc1c([C@H](C)n2cc(C(=O)N[C@H]3C[C@@](C)(c4cc(Cl)ccc4C(N)=O)C3)nn2)cnc(N2C[C@H]3C[C@H]3C2=O)c1C` [Example 142, N-((cis)-3-(2-carbamoyl-5-chlorophenyl)-3-methylcyclobutyl)-1-((S)-1-(4,5-dimethyl-6-((1R,5S)-2-oxo-3-azabicyclo[3.1.0]hexan-3-yl)pyridin-3-yl)ethyl)-1H-1,2,3-triazole-4-carboxamide], 9.40.
